{"source": "patent US11028369B2", "about": "“Induced extended pluripotent stem cells, method of making and using” (Beihao Stem Cell and Regenerative Medicine Research …, priority 2015, dated 2021)", "key": {"hEPS cells": {"tested_on": "hEPS cells", "test": "Maintenance of hEPS cells after withdrawal or replacement of DiM or MiH", "format": "cell-based, human", "conditions": "for maintenance of hEPS cells when DiM is replaced by MAPK signaling inhibitor: replacement of DiM; for maintenance of hEPS cells when DiM or MiH is replaced: inhibitor of the same target replaces DiM or MiH in LCDM", "method": "FIGS. 4A and 4B show the profiles of H3K4me3 and H3K27me3 chromatin marks over all genes in primed hES (n=2, technical replicates) and hEPS (n=2, technical replicates) cells. The standard error of mean (SEM) across the regions is calculated and shown as a semi-transparent shade around the mean curve. FIGS. 4C-D are bar graphs showing Q-PCR analysis of selected gene expression in hEPS cells under different conditions at passage 7. DiM (((S)-(+)-Dimethindene maleate) (FIG. 4C) and MiH (Minocycline hydrochloride) (FIG. 4D) were replaced with small molecules targeting to the same targets in the LCDM [hLIF (human leukemia inhibitory factor), CHIR99021, DiM, and MiH] condition. hEPS cells were cultured under LCM condition with an added small molecule selected from: DiM (2 μM), TH(5 μM), DES(5 μM), or cultured with DMSO (dimethyl sulfoxide) respectively (FIG. 4C) or under LCD condition with an added small molecule selected from MiH, BSI-201 (5 μM), NAM (100 μM), PJ34 (N-(6-Oxo-5,6-dihydro-phenanthridin-2-yl)-N,N-dimethylacetamide. HCl) (5 μM), or DMSO (FIG. 4D). Expression values are normalized to the mean value of the LCM+DiM (FIG. 4C) and LCD+MiH (FIG. 4D) sample. LCM: human LIF+CHIR99021+MiH; LCD: human LIF+CHIR99021+DiM. Center values indicate mean. Error bars indicate s.d. (n=3, technical replicates). TH: Tripelennamine HCL; DES: Desloratadine; BSI: BSI-201; NAM: Nicotinamide. […] Expression values are normalized to the mean value of the scramble control. Center values indicate mean. Error bars indicate s.d. (n=3, technical replicates). FIG. 4F is a bar graph showing a summary of chimera assays at E12.5. […] FIG. 4G is a bar graph showing a summary of chimeric assays of single-cell injection at the 8-cell embryo stage. […] ICM & TE, embryos with the integration of mouse cells into both ICM and TE.\nHuman and mouse extended pluripotent stem cells were cultured in serum-free N2B27-LCDM medium in 20% O2, 5% CO2 conditions. To maintain human EPS cells in an undifferentiated state, the following criteria were used: a) avoidance of plating human EPS cells too sparsely; b) use of the proper quantity of freshly prepared MEF feeder cells; and c) not allowing human EPS cells to overgrow (for example, attain more than 90% confluence; preferably, the cells should be at less than 90% confluent). Accordingly, human and mouse EPS cells were cultured on mitomycin C-inactivated mouse embryonic fibroblast (MEF) feeder cells (3×10^4 cells per cm^2), and were passaged by single-cell trypsinization (0.05% trypsin-EDTA, Invitrogen) every 2-4 days (normally at a split ratio of 1:6 to 1:10). Passage numbers of EPS cells indicate number of passages counted after the acquirement of the extended pluripotent state. The N2B27-LCDM medium was changed every day with fresh LCDM medium.\nFinally, the roles of DiM and MiH in maintaining EPS cells were investigated. […] Furthermore, similar results were obtained when MiH was replaced by the knockdown of PARP1 in hEPS cells (FIG. 4E). Importantly, both mEPS and hEPS cells still retained their ability of contributing to both TE and ICM in blastocysts under such conditions (FIG. 6C, 6D, and data not shown)."}, "mEPS cells": {"tested_on": "mEPS cells", "test": "Chimeric analysis of mEPS cells cultured under different conditions (injection into 8-cell embryos)", "format": "cell-based, mouse", "conditions": "chimeric blastocysts; for developmental potency of mEPS cells when DiM is replaced by MAPK signaling inhibitor: replacement of DiM", "method": "FIGS. 6A and 6B show PCA of RNA-seq and microarray data from EPS cells and known pluripotent cell types. […] Data were normalized to mES cells in each study. […] Data were normalized to primed hPSCs in each study. […] Circles: RNA-seq data; triangles: microarray data. […] Parp1 knockout mEPS cells (Parp1-KO) were cultured in LCDM condition without MiH (-MiH). mEPS cells were cultured under different conditions for at least 5 passages before injection. Multiple cells were injected into 8-cell embryos, which were cultured for additional 60 hours before further analysis. […] ICM & TE, embryos with the integration of mouse cells into both ICM and TE. […] ICM & TE, embryos with the integration of mouse cells into both ICM and TE. TH: TripelennamineHCL; DES: Desloratadine; NAM: Nicotinamide. PD: PD0325901; SB: SB203580; SP: SP600125.\nFor injection of Tdtomato-labeled mEPS cells and conventional naïve mouse ES cells, mEPS and naïve mouse ES cells were trypsinized and microinjected in the same way as for hEPS cells except that Y27632 was not added into the suspension.\nThe cells used in this experiment were cultured and prepared in a way that was similar to that of the multiple-cell microinjections. The cell suspension was placed on ice for 20-30 minutes before injection. After being placed on ice, the digested single cells were used for injection within 1 hour: in other words, the whole injection process should not take more than 30 minutes. Afterward, the injected embryos are recovered for 1-2 hours in a humidified incubator with 5% CO2 at 37° C. If the cells were placed on ice for more than 1 hour, then another batch of cells was digested for the remaining injections. […] After 60 hours, the embryos were fixed and immunostained."}, "primed hES/hPS H9 cells": {"tested_on": "primed hES/hPS H9 cells", "test": "Screen for dome-shaped hES colony formation / TGFβ signaling-independent self-renewal", "format": "cell-based, human", "conditions": "hLIF+2i + candidate with SB431542", "source_text": "Primed hES are flat colonies. By contrast, naïve human pluripotent cells are dome-shaped colonies. Therefore, any resultant human EPS cells can be morphologically distinguished from primed human pluripotent stem cells.\nPositive candidates from the first screen above were further screened in order to identify small molecules that support TGFβ signaling-independent self-renewal of hES cells (Tesar, et al., Dev., 448:196-199 (2007); James, et al.,Dev., 132:1273-1282 (2005); Vallier, et al., J. Cell. Sci., 118:4495-4509 (2005)). A TGFβ inhibitor SB431542 was added to the chemical cocktail (2i+LIF+candidate) at the later stage of treatment (FIG. 1A).\nSpecifically, primed hES/hPS H9 cells were digested into single cells using ACCUTASE® (cell detachment solution), and seeded into a matrigel-coated 24-well plate (1×10^4 cells per well) on day 0 in conventional hES medium plus Y27632. On day 1, the conventional hES medium was replaced by the N2B27 medium supplemented with the hLIF+2i base, and candidates from the first round screen were added individually into each well. The medium was changed every two days and replaced with fresh N2B27 medium supplemented with hLIF+2i. 6 days later (i.e., on day 7), a TGF (transforming growth factor) β inhibitor, SB431542 (10 μm, Tocris), was added into wells with un-differentiated cells for another 6 days. […]"}, "[1]": {"conditions": "withdrawal of either DiM or MiH"}}, "note": "Where a name gives a salt, the structure may show the parent alone."}
{"compound": "C[S+]([O-])c1ccc(-c2nc(-c3ccncc3)c(-c3ccc(F)cc3)[nH]2)cc1", "note": "(centres unmarked) [SB203580]", "values": [{"measurement": "maintenance of hEPS cells when DiM is replaced by MAPK signaling inhibitor", "setting": "hEPS cells", "result": "could not maintain hEPS cells"}, {"measurement": "developmental potency of mEPS cells when DiM is replaced by MAPK signaling inhibitor", "setting": "mEPS cells", "result": "could not preserve the developmental potency of mEPS cells"}]}
{"compound": "C[C@@H](C1=C(CCN(C)C)Cc2ccccc21)c1ccccn1.O=C(O)/C=C\\C(=O)O", "note": "[DiM, (S)-(+)-Dimethindene maleate]", "values": [{"measurement": "dome-shaped hES colony formation", "setting": "primed hES/hPS H9 cells", "result": "support dome-shaped hES colony formation"}, {"measurement": "effect of withdrawal from LCDM on hEPS cells", "setting": "hEPS cells; [1]", "result": "rapid differentiation of hEPS cells within days after plating"}, {"measurement": "effect of withdrawal from LCDM on developmental potency of mEPS cells", "setting": "mEPS cells; [1]", "result": "significantly impaired the developmental potency of mEPS cells"}]}
{"compound": "NC(=O)c1ccc(I)c([N+](=O)[O-])c1", "note": "[BSI-201, 4-iodo-3-nitrobenzamide]", "values": [{"measurement": "maintenance of hEPS cells when DiM or MiH is replaced", "setting": "hEPS cells", "result": "could be replaced with other inhibitors targeting the same targets for the maintenance of hEPS cells"}]}
{"compound": "CN(C)CCN(Cc1ccccc1)c1ccccn1", "note": "[TripelennamineHCL, Tripelennamine HCL]", "values": [{"measurement": "maintenance of hEPS cells when DiM or MiH is replaced", "setting": "hEPS cells", "result": "could be replaced with other inhibitors targeting the same targets for the maintenance of hEPS cells"}]}
{"compound": "NC(=O)c1cccnc1", "note": "[Nicotinamide]", "values": [{"measurement": "maintenance of hEPS cells when DiM or MiH is replaced", "setting": "hEPS cells", "result": "could be replaced with other inhibitors targeting the same targets for the maintenance of hEPS cells"}]}
{"compound": "O=C(NOC[C@H](O)CO)c1ccc(F)c(F)c1Nc1ccc(I)cc1F", "note": "[PD0325901]", "values": [{"measurement": "maintenance of hEPS cells when DiM is replaced by MAPK signaling inhibitor", "setting": "hEPS cells", "result": "could not maintain hEPS cells"}, {"measurement": "developmental potency of mEPS cells when DiM is replaced by MAPK signaling inhibitor", "setting": "mEPS cells", "result": "could not preserve the developmental potency of mEPS cells"}]}
{"compound": "Clc1ccc2c(c1)CCc1cccnc1C2=C1CCNCC1", "note": "[Desloratadine]", "values": [{"measurement": "maintenance of hEPS cells when DiM or MiH is replaced", "setting": "hEPS cells", "result": "could be replaced with other inhibitors targeting the same targets for the maintenance of hEPS cells"}]}
